Test results as given in ChEMBL document CHEMBL1949578, “Inhibitors of acetyltransferase domain of N-acetylglucosamine-1-phosphate-uridyltransferase/glucosamine-1-phosphate-acetyltransferase (GlmU). Part 1: Hit to lead evaluation of a novel arylsulfonamide series” (Bioorg Med Chem Lett, 2012).

How the values were obtained:
[1] = Lipophilicity, log D of the compound at pH 7.4; conditions: buffer
[2] = Inhibition of Staphylococcus aureus acetyltransferase activity of GlmU using acetyl-CoA and glucosamine-1-phosphate after 30 mins by Ellman's method
[3] = Inhibition of Haemophilus influenzae acetyltransferase activity of GlmU using acetyl-CoA and glucosamine-1-phosphate after 30 mins by Ellman's method
[4] = target: Bifunctional protein GlmU (Streptococcus pneumoniae serotype 4 (strain ATCC BAA-334 / TIGR4), UniProt Q97R46); assay: (§1) Inhibition of Streptococcus pneumoniae acetyltransferase activity of GlmU using acetyl-CoA and glucosamine-1-phosphate after 30 mins by Ellman's method
[5] = Inhibition of Escherichia coli acetyltransferase activity of GlmU using acetyl-CoA and glucosamine-1-phosphate after 30 mins by Ellman's method
[6] = target: Bifunctional protein GlmU (Streptococcus pneumoniae serotype 4 (strain ATCC BAA-334 / TIGR4)) (UniProt Q97R46); assay: as §1
Chain of Bifunctional protein GlmU (Streptococcus pneumoniae serotype 4 (strain ATCC BAA-334 / TIGR4)) (Q97R46 whole entry): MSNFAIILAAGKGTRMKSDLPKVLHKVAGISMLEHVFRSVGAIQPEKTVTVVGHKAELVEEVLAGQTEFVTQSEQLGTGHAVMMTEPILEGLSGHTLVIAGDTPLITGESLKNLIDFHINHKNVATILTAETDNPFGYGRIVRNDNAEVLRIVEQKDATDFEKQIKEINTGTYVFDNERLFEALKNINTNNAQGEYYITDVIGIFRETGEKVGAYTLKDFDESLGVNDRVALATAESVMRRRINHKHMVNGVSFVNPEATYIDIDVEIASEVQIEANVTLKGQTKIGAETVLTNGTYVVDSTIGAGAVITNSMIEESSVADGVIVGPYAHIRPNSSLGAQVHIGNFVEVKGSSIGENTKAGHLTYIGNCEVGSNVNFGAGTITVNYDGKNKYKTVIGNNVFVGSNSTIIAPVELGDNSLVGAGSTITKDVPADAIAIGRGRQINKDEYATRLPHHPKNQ

Chain of Bifunctional protein GlmU (Q97R46 whole entry): as above

Row | SMILES | logD [1] | IC50 [2] [µM] | IC50 [3] [µM] | IC50 [4] [µM] | IC50 [5] [µM] | inhibition [6] [%]
1 | COc1cc(OC)c(S(=O)(=O)N2c3ccccc3CCC2C)cc1NC(=O)NCC(=O)O (stereo not drawn) | -1.02 | > 200 | 5 | 20 | 0.5 | –
2 | COc1cc(OC)c(S(=O)(=O)N(C)c2ccccc2)cc1NC(C)=O | – | > 200 | 6 | > 200 | 3 | –
3 | COc1cc(OC)c(S(=O)(=O)N(c2ccccc2)C(C)C)cc1NC(C)=O | – | > 200 | 16 | > 200 | 2 | –
4 | COc1cc(OC)c(S(=O)(=O)NCc2ccccc2N2CCC(CO)CC2)cc1NC(=O)CCC(=O)O | < -1 | > 200 | 6 | 5 | 3 | –
5 | COC(=O)c1ccccc1CNS(=O)(=O)c1cc(NC(C)=O)c(OC)cc1OC | – | > 200 | 55 | > 200 | 15 | –
6 | COc1cc(OC)c(S(=O)(=O)NCc2ccccc2N2CCC(CO)CC2)cc1NC(C)=O | 1.03 | > 200 | 80 | 70 | 40 | –
7 | COc1cc(OC)c(S(=O)(=O)N2c3ccccc3CCC2C)cc1NC(=O)COC(C)=O (stereo not drawn) | – | > 200 | 2 | 90 | 2 | –
8 | COc1cc(OC)c(S(=O)(=O)NCc2ccc3c(c2)OCO3)cc1NC(C)=O | – | > 200 | > 200 | > 200 | > 200 | –
9 | COc1cc(OC)c(S(=O)(=O)N2c3ccccc3CCC2C)cc1NC(=O)CSCC(=O)O (stereo not drawn) | -1.2 | > 200 | 0.2 | > 200 | 0.1 | –
10 | COc1cc(OC)c(S(=O)(=O)Nc2cccc(C)c2)cc1NC(C)=O | – | > 200 | 40 | > 200 | 17 | –
11 | COc1cc(OC)c(S(=O)(=O)N2c3ccccc3CCC2C)cc1NC(=O)CSc1ccncc1 (stereo not drawn) | 2.8 | > 200 | 6 | > 200 | 1 | –
12 | COc1ccccc1CNS(=O)(=O)c1cc(NC(C)=O)c(OC)cc1OC | – | > 200 | 54 | > 200 | 10 | –
13 | COc1cc(OC)c(S(=O)(=O)NCc2ccccc2N2CCC(CC(=O)O)CC2)cc1NC(=O)CCC(=O)O | – | 10 | 3 | 2 | < 0.4 | –
14 | COc1cc(OC)c(S(=O)(=O)NCc2ccccc2N2CCC(COC(=O)CCC(=O)O)CC2)cc1NC(=O)CCC(=O)O | -1 | > 200 | – | – | 0.25 | –
15 | COc1cc(OC)c(S(=O)(=O)N2c3ccccc3CCC2C)cc1NC(=O)/C=C/C(=O)O (stereo not drawn) | – | > 200 | 2 | 10 | 0.5 | –
16 | COc1cc(OC)c(S(=O)(=O)N2c3ccccc3CCC2C)cc1NC(=O)COCC(=O)O (stereo not drawn) | -1 | > 200 | 0.3 | – | 0.2 | 28
17 | COc1cc(OC)c(S(=O)(=O)N2c3ccccc3CCC2C)cc1NC(C)=O (stereo not drawn) | 1.97 | > 200 | 3 | 55 | 1.5 | –
18 | COc1cc(OC)c(S(=O)(=O)N2c3ccccc3CCC2C)cc1NC(=O)COc1ccc(C(C)=O)cc1 (stereo not drawn) | – | > 200 | > 200 | > 200 | > 200 | –
19 | COc1cc(OC)c(S(=O)(=O)NCc2ccccc2N2CCC(C(=O)O)CC2)cc1NC(=O)CCC(=O)O | – | 50 | 1 | 2 | 0.5 | –

Row | SMILES | logD [1] | IC50 [2] [µM] | IC50 [3] [µM] | IC50 [4] [µM] | IC50 [5] [µM] | inhibition [6] [%]
20 | COc1cc(OC)c(S(=O)(=O)N2c3ccccc3CCC2C)cc1NC(=O)c1ccccc1 (stereo not drawn) | – | > 200 | > 200 | > 200 | > 200 | –
21 | COc1cc(OC)c(S(=O)(=O)NCc2ccccc2-c2ccc(C(=O)O)cc2)cc1NC(=O)CCC(=O)O | – | – | 5 | 15 | 0.9 | –
22 | COc1cc(OC)c(S(=O)(=O)N2c3ccccc3CC2C)cc1NC(C)=O (stereo not drawn) | – | > 200 | 8 | > 200 | – | –
23 | COc1cc(OC)c(S(=O)(=O)N2CCCCC2)cc1NC(C)=O | – | > 200 | > 200 | > 200 | 80 | –
24 | COc1cc(OC)c(S(=O)(=O)Nc2cccc(F)c2)cc1NC(C)=O | – | > 200 | 30 | > 200 | 15 | –
25 | COc1cc(OC)c(S(=O)(=O)NCc2ccccc2N2CCCCC2)cc1NC(=O)CCC(=O)O | -0.72 | > 200 | 5 | 12 | 3 | –
26 | COc1cc(OC)c(S(=O)(=O)N(C)C)cc1NC(C)=O | – | > 200 | > 200 | > 200 | > 200 | –
27 | COc1cc(OC)c(S(=O)(=O)N2c3ccccc3CCC2C)cc1NC(=O)CCC(=O)O (stereo not drawn) | -0.87 | > 200 | 0.6 | 20 | 0.09 | –
28 | COc1cc(OC)c(S(=O)(=O)N2c3ccccc3CCC2C)cc1NC(=S)NCC(=O)O (stereo not drawn) | -1.04 | > 200 | 1 | 30 | 0.5 | –
29 | COc1cc(OC)c(S(=O)(=O)NCc2ccccc2Br)cc1NC(C)=O | – | > 200 | 20 | > 200 | 4 | –
30 | COc1cc(OC)c(S(=O)(=O)Nc2ccc(F)cc2)cc1NC(C)=O | – | > 200 | 60 | > 200 | 25 | –
31 | COc1cc(OC)c(S(=O)(=O)Nc2ccccc2F)cc1NC(C)=O | – | > 200 | 10 | > 200 | 5 | –
32 | COc1cc(OC)c(S(=O)(=O)NCc2ccccc2N2CCCCC2)cc1NC(C)=O | – | > 200 | 120 | – | > 200 | –
33 | COc1cc(OC)c(S(=O)(=O)N2CCCCC2C)cc1NC(C)=O (stereo not drawn) | – | > 200 | > 200 | > 200 | 130 | –
34 | COc1cc(OC)c(S(=O)(=O)Nc2ccc(C)cc2)cc1NC(C)=O | – | > 200 | 47 | > 200 | 21 | –
35 | COc1cc(OC)c(S(=O)(=O)Nc2ccccc2)cc1NC(C)=O | – | > 200 | 70 | > 200 | 20 | –
36 | COc1cc(OC)c(S(=O)(=O)N2CCCC2C)cc1NC(C)=O (stereo not drawn) | – | > 200 | > 200 | > 200 | > 200 | –
37 | COc1cc(OC)c(S(=O)(=O)N2c3ccccc3CCC2C)cc1NS(C)(=O)=O (stereo not drawn) | – | > 200 | > 200 | > 200 | 100 | –
38 | CCN(c1ccccc1C)S(=O)(=O)c1cc(NC(C)=O)c(OC)cc1OC | – | > 200 | 80 | > 200 | 15 | –
